Data taken from PMC5874699, “Antimicrobial and Antibiofilm Activity of UP-5, an Ultrashort Antimicrobial Peptide Designed Using Only Arginine and Biphenylalanine” (Pharmaceuticals, 2018).

Experiments:
[1] = test system: methicillin-resistant S. aureus (MRSA) (ATCC 33591); experiment: MIC/MBC, microbroth dilution (CLSI); format: cell-based, Staphylococcus aureus; conditions: S. aureus ATCC 33591, antibiotic alone, triplicate; for Antibiotics MBC Alone: 99.9% killing; for Antibiotics MIC Alone: microbroth dilution
From the text: (§1) All bacterial susceptibility, biofilm, and synergistic assays of peptides, antibiotics, and peptides-antibiotics combinations used bacterial strains obtained from the American Type Tissue Culture Collection (ATCC, Manassas, VA, USA) that states the mechanism of resistance for each strain according to ATCC number. Gram-positive bacteria were represented by five strains, the wild type strain Staphylococcus aureus (ATCC 29213) and methicillin-resistant S. aureus (MRSA) (ATCC 33591) in addition to clinically isolated strains S. aureus (ATCC BAA-41& 43300) and Enterococcus faecalis (ATCC BAA-2316). The Gram-negative bacteria strains were represented by wild type strains of Escherichia coli (ATCC 25922 & 35218) and Pseudomonas aeruginosa (ATCC 27853) as well as the clinically isolated multidrug-resistant strain P. aeruginosa (ATCC BAA-2114). The bacteria were cultured onto Muller Hinton Agar (Scharlab, S.L, Barcelona, Spain). Mueller Hinton Broth (Oxoid Ltd., Basingstoke, UK) was used to prepare all bacterial suspensions and to dissolve the peptides and the antibiotics. The assay was performed in sterile 96-well polypropylene microtiter plates.
(§2) All bacterial susceptibility assays were conducted according to the microbroth dilution method outlined by the Clinical and Laboratory Standards Institute (CLSI) guidelines.
(§3) Briefly, pre-sterilized MHB was used as a growth medium for organisms obtained from stock media with glycerol. Bacterial cells were grown overnight in MHB and diluted to 10^6 CFU/mL in the same medium prior to use. For peptide, serial concentrations in the range of 0.5–100 μM were prepared. Then, 50 μL of each peptide concentration and 50 µL of diluted bacterial suspension were added to each well of a 96-well microtiter plate. Peptide solutions were prepared by dissolving the peptide in sterile MHB. Then, the plates were incubated overnight in a humidified atmosphere, and at 37 °C. Bacterial growth was determined by measuring the optical density (OD) at λ = 600 nm using an ELISA plate reader (Epoch, BioTek, Winooski, VT, USA) and the minimum inhibitory concentration (MIC) was determined.
(§4) As described in the previous section, the MIC and MBC values of antibiotics employed in this study were determined against subjected bacterial strains via preparing different concentrations of each antibiotic.

[2] = test system: P. aeruginosa (ATCC BAA-2114); experiment: Broth microdilution checkerboard, UP-5 with antibiotics; format: cell-based, Pseudomonas aeruginosa; conditions: for Effect of the combination according to FIC value: P. aeruginosa (ATCC 2114 as printed); for Effect of the combination according to FIC value / FIC Index: antibiotic-UP-5 combination; for Antibiotics Reduction in MIC (%) / Antibiotics MIC in Combination / FIC Index: P. auroginosa ATCC BAA-2114; for Antibiotics Reduction in MIC (%): antibiotic MIC in combination with UP-5 compared to MIC alone; for Antibiotics MIC in Combination: antibiotic in combination with UP-5, checkerboard, triplicate; for FIC Index: checkerboard
From the text: as §1
(§5) According to the broth microdilution checkerboard technique, the MIC and MBC values of peptide-antibiotics combinations against wild type and multidrug resistant bacterial strains were determined. Serial concentrations of peptide and each antibiotic were prepared in the range of 0.005–100 μM. In each well of a 96-well microtiter plate, 25 μL of each peptide concentration were added to 25 μL of each antibiotic concentration which is followed by adding 50 μL of diluted bacterial suspension (10^6 CFU/mL) to each well. The prepared concentrations of peptide and each antibiotic were arranged into rows and columns, respectively, in a 96-well microtiter plate according the checkerboard technique. Then as described previously (see Section 2.4.1), the procedure was followed. All MIC and MBC determinations of all assays were made in triplicate.
(§6) The fractional inhibitory concentration (FIC) is defined as the inhibitory concentration of the antimicrobial combination divided by that of the single antimicrobial component. To calculate FIC index for peptide-antibiotic combinations, the following equation was used:(1) FIC index=MIC of drug X in combination/MIC of drug X alone+MIC of drug Y in combination/MIC of drug Y alone
(§7) The FIC indices were interpreted as follows: ≤0.5: synergistic activity, 0.5–1: additive activity, 1–4 indifferent, >4: antagonism. Interpretation and assessment of the FIC indices were performed according to the broth microdilution checkerboard technique.

S. aureus (ATCC 43300) [3] = experiment: as above; format: cell-based, Staphylococcus aureus; conditions: for Effect of the combination according to FIC value: S. aureus (ATCC 43300); for Effect of the combination according to FIC value / FIC Index: antibiotic-UP-5 combination; for Antibiotics MIC in Combination: antibiotic in combination with UP-5, checkerboard, triplicate; for FIC Index: checkerboard
From the text: as §1, §5, §6, §7

S. aureus (ATCC BAA-41) [4] = experiment: as above; format: cell-based, Staphylococcus aureus; conditions: for Antibiotics MIC in Combination / Antibiotics Reduction in MIC (%) / FIC Index: S. aureus ATCC BAA-41; for Antibiotics MIC in Combination: antibiotic in combination with UP-5, checkerboard, triplicate; for Effect of the combination according to FIC value: S. aureus (ATCC BAA-41); for Effect of the combination according to FIC value / FIC Index: antibiotic-UP-5 combination; for Antibiotics Reduction in MIC (%): antibiotic MIC in combination with UP-5 compared to MIC alone; for FIC Index: checkerboard
From the text: as §1, §5, §6, §7

S. aureus (ATCC 29213) = experiment: as above; format: cell-based, Staphylococcus aureus; conditions: for Antibiotics Reduction in MIC (%) / Antibiotics MIC in Combination / FIC Index: S. aureus ATCC 29213; for Antibiotics Reduction in MIC (%): antibiotic MIC in combination with UP-5 compared to MIC alone; for Antibiotics MIC in Combination: antibiotic in combination with UP-5, checkerboard, triplicate; for Effect of the combination according to FIC value: S. aureus (ATCC 29213); for Effect of the combination according to FIC value / FIC Index: antibiotic-UP-5 combination; for FIC Index: checkerboard
From the text: as §1, §5, §6, §7

S. aureus (ATCC 33591) = experiment: as above; format: cell-based, Staphylococcus aureus; conditions: for Effect of the combination according to FIC value: S. aureus (ATCC 33591); for Effect of the combination according to FIC value / FIC Index: antibiotic-UP-5 combination; for Antibiotics Reduction in MIC (%) / Antibiotics MIC in Combination / FIC Index: S. aureus ATCC 33591; for Antibiotics Reduction in MIC (%): antibiotic MIC in combination with UP-5 compared to MIC alone; for Antibiotics MIC in Combination: antibiotic in combination with UP-5, checkerboard, triplicate; for FIC Index: checkerboard
From the text: as §1, §5, §6, §7

[5] = test system: Staphylococcus aureus (ATCC 29213); format: cell-based; conditions: S. aureus ATCC 29213, antibiotic alone, triplicate; for Antibiotics MBC Alone: 99.9% killing; for Antibiotics MIC Alone: microbroth dilution
From the text: as §1, §2, §3, §4

[6] = test system: P. aeruginosa (ATCC BAA-2114); format: cell-based, Pseudomonas aeruginosa; conditions: P. auroginosa ATCC BAA-2114, antibiotic alone, triplicate; for Antibiotics MBC Alone: 99.9% killing; for Antibiotics MIC Alone: microbroth dilution
From the text: as §1, §2, §3, §4

S. aureus (ATCC 43300) [7] = format: cell-based, Staphylococcus aureus; conditions: S. aureus ATCC 43300, antibiotic alone, triplicate; for Antibiotics MBC Alone: 99.9% killing; for Antibiotics MIC Alone: microbroth dilution
From the text: as §1, §2, §3, §4

S. aureus (ATCC BAA-41) [8] = format: cell-based, Staphylococcus aureus; conditions: S. aureus ATCC BAA-41, antibiotic alone, triplicate; for Antibiotics MBC Alone: 99.9% killing; for Antibiotics MIC Alone: microbroth dilution
From the text: as §1, §2, §3, §4

Compound | Antibiotics MBC Alone [1] | Antibiotics MIC Alone [1] | Effect of the combination according to FIC value [2] | Antibiotics Reduction in MIC (%) [2] | Antibiotics MIC in Combination [2] | Effect of the combination according to FIC value (S. aureus (ATCC 43300) [3]) | Antibiotics MIC in Combination (S. aureus (ATCC 43300) [3]; S. aureus ATCC 43300) | Antibiotics MIC in Combination (S. aureus (ATCC BAA-41) [4]) | Antibiotics Reduction in MIC (%) (S. aureus (ATCC 29213)) | Antibiotics MIC in Combination (S. aureus (ATCC 29213)) | Effect of the combination according to FIC value (S. aureus (ATCC 33591)) | Antibiotics Reduction in MIC (%) (S. aureus (ATCC 33591)) | Antibiotics MBC Alone [5] | Antibiotics MIC Alone [5] | Antibiotics MBC Alone [6] | Antibiotics MIC Alone [6] | Antibiotics MBC Alone (S. aureus (ATCC 43300) [7]) | Antibiotics MIC Alone (S. aureus (ATCC 43300) [7]) | Antibiotics MBC Alone (S. aureus (ATCC BAA-41) [8]) | Antibiotics MIC Alone (S. aureus (ATCC BAA-41) [8]) | also measured
CC1(C)S[C@@H]2[C@H](NC(=O)[C@H](N)c3ccccc3)C(=O)N2[C@H]1C(=O)O [Ampicillin, ampicillin] | 85 µM | 85 µM | additive (0.5–1: additive activity) | >50% | 250 µM | additive (0.5–1: additive activity) | 2.5 µM | 20 µM | <50% | 2.5 µM | synergistic (≤0.5: synergistic activity) | 85.3% | 2.5 µM | 2.5 µM | > 500 µM | > 500 µM | 20 µM | 20 µM | 40 µM | 40 µM | 
O=C(N[C@H](CO)[C@H](O)c1ccc([N+](=O)[O-])cc1)C(Cl)Cl [Chloramphenicol, chloramphenicol] | 150 µM | 130 µM | synergistic (≤0.5: synergistic activity) | 93.7% | 12.5 µM | additive (0.5–1: additive activity) | 7.5 µM | 7.5 µM |  | 10 µM | additive (0.5–1: additive activity) | 50% | 30 µM | 20 µM | 325 µM | 200 µM | 20 µM | 15 µM | 30 µM | 25 µM | FIC Index [2]: 0.24; FIC Index (S. aureus (ATCC 43300) [3]; S. aureus ATCC 43300): 1; Effect of the combination according to FIC value (S. aureus (ATCC BAA-41) [4]): additive (0.5–1: additive activity); Antibiotics Reduction in MIC (%) (S. aureus (ATCC BAA-41) [4]): 70%; FIC Index (S. aureus (ATCC BAA-41) [4]): 0.8; Effect of the combination according to FIC value (S. aureus (ATCC 29213)): additive (0.5–1: additive activity); FIC Index (S. aureus (ATCC 29213)): 0.75; Antibiotics MIC in Combination (S. aureus (ATCC 33591)): 65 µM; FIC Index (S. aureus (ATCC 33591)): 1
CC[C@H]1OC(=O)[C@H](C)[C@@H](O[C@H]2C[C@@](C)(OC)[C@@H](O)[C@H](C)O2)[C@H](C)[C@@H](O[C@@H]2O[C@H](C)C[C@H](N(C)C)[C@H]2O)[C@](C)(O)C[C@@H](C)C(=O)[C@H](C)[C@@H](O)[C@]1(C)O [Erythromycin, erythromycin] | 10 µM | 8 µM | additive (0.5–1: additive activity) | 60% | 50 µM |  | 100 µM |  | <50% | 0.5 µM |  | <50% | 1.5 µM | 0.5 µM | 150 µM |  | 150 µM | 100 µM | 400 µM | 350 µM | Antibiotics Reduction in MIC (%) (S. aureus (ATCC 43300) [3]; S. aureus ATCC 43300, antibiotic MIC in combination with UP-5 compared to MIC alone): <50%; Antibiotics Reduction in MIC (%) (S. aureus (ATCC BAA-41) [4]): 64.3%; Antibiotics MIC in Combination (S. aureus (ATCC 33591)): 8 µM
C[C@H]1COc2c(N3CCN(C)CC3)c(F)cc3c(=O)c(C(=O)O)cn1c23 [Levofloxacin, levofloxacin] | 10 µM | 10 µM | additive (0.5–1: additive activity) | 58.3% | 5 µM | synergistic (≤0.5: synergistic activity) | 5 µM | 10 µM | 90% | 0.05 µM | synergistic (≤0.5: synergistic activity) | 87.5% | 0.5 µM | 0.5 µM | 12 µM | 12 µM | 20 µM | 20 µM | 10 µM | 10 µM | FIC Index [2]: 0.78; FIC Index (S. aureus (ATCC 43300) [3]; S. aureus ATCC 43300): 0.25; Effect of the combination according to FIC value (S. aureus (ATCC BAA-41) [4]): indifferent (1–4 indifferent); Antibiotics Reduction in MIC (%) (S. aureus (ATCC BAA-41) [4]): <50%; FIC Index (S. aureus (ATCC BAA-41) [4]): 2; Effect of the combination according to FIC value (S. aureus (ATCC 29213)): synergistic (≤0.5: synergistic activity); Antibiotics Reduction in MIC (%) (S. aureus (ATCC 29213); listed as levofloxacin): 87.5%; FIC Index (S. aureus (ATCC 29213)): 0.11; Antibiotics Reduction in MIC (%) (S. aureus (ATCC 33591); listed as levofloxacin): 90%; Antibiotics MIC in Combination (S. aureus (ATCC 33591)): 1.25 µM; FIC Index (S. aureus (ATCC 33591)): 0.13
